Laboratory results published in article PMC12645191, “Dicarboxylate and dicarboxylic acid appended supramolecular self-associating amphiphiles as antimicrobial agents against high priority bacterial pathogens” (Organic & Biomolecular Chemistry, 2025).
≈ marks a conversion by molar mass, not a printed value. Where “and” joins values, the source holds several entries; their conditions need not be identical. Identical values can stand only once. Marks after values point to notes of the source that are not given here.

Columns and labels:
[1] = kinetic solubility determination in PBS pH 7.4; settings: pH 7.4, aqueous buffer, kinetic from dmso stock
[2] = quantitative (Q) 1H NMR spectroscopy, proportion of SSA becoming NMR silent (higher-order aggregates); format: physicochemical
Protocol: To confirm the presence of higher order self-associative structures quantitative (Q) ^1H NMR spectroscopy studies were undertaken at 5.6 mM in D2O 5% EtOH. Here the ^1H NMR resonances attributed to the EtOH are used as an internal standard.
Table S1 – Overview of results of the quantitative (Q) 1H NMR studies for 1, 3, 5, 7 and 9
5.0 % EtOH . Values given in % represent the observed proportion of the SSA that has become
Table S2 – Overview of results of the quantitative (Q) 1H NMR studies for 2, 4, 6, 8 and 10
5.0 % EtOH. Values given in % represent the observed proportion of anion and cation that has

[3] = tensiometry: critical aggregate concentration (CAC) and surface tension; format: physicochemical; settings: for Surface tension at CAC: H2O/5.0 % EtOH
Protocol: As the (Q) ^1H NMR spectroscopy experiments conducted at 5.6 mM in a D2O 5.0% EtOH solution confirmed the presence of higher-order self-associated structures with solid-like properties, concentration dependent surface tension measurements, obtained through tensiometry, were used to calculate critical aggregate concentration (CAC). Here the CAC is defined as the point at which an increase in SSA concentration no longer decreases surface tension but instead results in the formation of higher-order self-associated structures.

[4] = dynamic light scattering (DLS) of SSA aggregates; format: physicochemical; settings: 5.6 mM, H2O 5.0% EtOH, 298 K
Protocol: Dynamic light scattering (DLS) and zeta potential measurements in H2O 5.0% EtOH were used to determine the hydrodynamic diameter (dH) and stability of the higher-order SSA aggregates detected by (Q) ^1H NMR spectroscopy at 5.6 mM, Table 1. […] However, we are unable to confidently report a dH for 1 due to the instability of this system, which is supported by a zeta potential value of −26 mV, obtained for this SSA under the same experimental conditions. […] Due to the instability of these systems in the absence of solvent, attempts to further characterise these systems through SEM or AFM are not possible.[48]

[5] = tested on: P. aeruginosa PAO1; assay: inhibition of bacterial growth, OD600 after 20 h; format: cell-based, Pseudomonas aeruginosa; settings: SSA 5.0 mM, 2.5% ethanol, negative = enhanced growth
Protocol: (§1) With the self-associative properties of 1–10 established, the antimicrobial activity of these SSAs were determined against a panel of clinically relevant, high-priority pathogens including: P. aeruginosa PAO1; Klebsiella pneumonia (K. pneumoniae) M6; E. coli NCTC 12923; Acinetobacter baumannii (A. baumannii) ATCC 17978; S. aureus ATCC 9144; Enterococcus faecalis (E. faecalis) NCTC 775; and Enterococcus faecium (E. faecium) NCTC 12204. […] However, it should be noted that the SSA stock solution was prepared in a H2O 5% EtOH solution, to ensure that the SSA aggregates formed were in line with those characterised within the scope of the SSA self-association studies.
(§2) Section 3: Biological methods
(§3) These methods were taken directly from UK Health and Security Office (UKHSA) standard […]
(§4) Preparation of Luria Broth media (LB): Yeast extract (5.0 g), tryptone (10.0 g) and sodium chloride (10.0 g) were dissolved in dH₂O (1.0 L) then divided into bottles and autoclaved.
(§5) Preparation of Luria Broth (LB) agar plates: Agar (6.0 g) was added to LB (400 mL) and autoclaved. Once cool, the LB agar was poured into sterile petri dishes under sterile conditions and allowed to set. LB plates were stored at 4 °C until use.
(§6) Preparation of bacterial plates: Sterile LB agar plates were streaked using streaked using the desired bacteria i) Pseudomonas aeruginosa (P.aeruginosa) PAO1, ii) Klebsiella pneumoniae (K. pneumoniae) M6 iii) E. coli NCTC 12923 and iv) Acinetobacter baumannii (A. baumannii) ATCC 17978 and Gram-positive i) Staphylococcus aureus (S. aureus) ATCC 9144 ii) Enterococcus faecalis (E. faecalis) NCTC 775 and iii) Enterococcus faecium (E. faecium ) NCTC 12204, then incubated at 37 °C overnight.
(§7) Preparation of Inoculum: An initial culture was made up by inoculating LB media (5 mL) with a single colony of bacteria under sterile conditions and incubated at 37 °C with shaking overnight. The following day, overnight bacterial cultures were subcultured into fresh LB medium to a starting OD600 of 0.01.
(§8) Preparation of 96 well microplate for MIC50: The 1:100 cell suspension (150 µL) was dispensed into individual wells under sterile conditions. SSAs (30 µL) were added to the wells to equal a total volume of 180 µL in the wells. Six repeats of each concentration for each SSA were created each plate. The plates were sealed using parafilm, then incubated at 37 °C in a microplate reader for 20 hours. OD600 endpoint data was used to generate growth curves. […]

[6] = tested on: K. pneumoniae M6; assay: inhibition of bacterial growth, OD600 after 20 h; format: cell-based, Klebsiella pneumoniae; settings: SSA 5.0 mM, 2.5% ethanol, negative = enhanced growth
Protocol: as §1, §2, §3, §4, §5, §6, §7, §8

[7] = tested on: E. coli NCTC 12923; assay: inhibition of bacterial growth, OD600 after 20 h; format: cell-based, Escherichia coli; settings: SSA 5.0 mM, 2.5% ethanol, negative = enhanced growth
Protocol: as §1, §2, §3, §4, §5, §6, §7, §8

[8] = tested on: A. baumannii ATCC 17978; assay: inhibition of bacterial growth, OD600 after 20 h; format: cell-based, Acinetobacter baumannii; settings: SSA 5.0 mM, 2.5% ethanol, negative = enhanced growth
Protocol: as §1, §2, §3, §4, §5, §6, §7, §8

[9] = tested on: S. aureus ATCC 9144; assay: inhibition of bacterial growth, OD600 after 20 h; format: cell-based, Staphylococcus aureus; settings: SSA 5.0 mM, 2.5% ethanol, negative = enhanced growth
Protocol: as §1, §2, §3, §4, §5, §6, §7, §8

[10] = tested on: E. faecalis NCTC 775; assay: inhibition of bacterial growth, OD600 after 20 h; format: cell-based, Enterococcus faecalis; settings: SSA 5.0 mM, 2.5% ethanol, negative = enhanced growth
Protocol: as §1, §2, §3, §4, §5, §6, §7, §8

[11] = tested on: E. faecium NCTC 12204; assay: inhibition of bacterial growth, OD600 after 20 h; format: cell-based, Enterococcus faecium; settings: SSA 5.0 mM, 2.5% ethanol, negative = enhanced growth
Protocol: as §1, §2, §3, §4, §5, §6, §7, §8

[12] = 5.6 mM, D2O 5.0% EtOH, 298 K, listed as 6

SMILES: CC(=O)[C@H]1CC[C@H]2[C@@H]3CCC4=CC(=O)CC[C@]4(C)[C@H]3CC[C@]12C [Progesterone, reference compound]
- solubility [1]: 14.5 µM (≈ 4.57 µg/mL)

SMILES: COc1ccc(NC(=O)N[C@@H](CCC(=O)O)C(=O)O)cc1 [SSA 6]
- (Q) 1H NMR spectroscopy, proportion NMR silent, acid or anion [2, 12]: 42%
- (Q) 1H NMR spectroscopy, proportion NMR silent, cation [2, 12]: 41.8% and 42%
- (Q) 1H NMR, proportion NMR silent, cation ([2]; ~112 mM, DMSO-d6 1.0% DCM): 0%
- ST at the limit of solubility or 100 mM, whichever concentration is lower ([3]; H2O 5.0% EtOH, 298 K): 38 ^d mN m^−1
- CAC (footnote in place of a value) ([3]; H2O 5.0% EtOH, 298 K, listed as 6): ^c (CAC is >100 mM)
- Surface tension at CAC ([3]; listed as 6): 38.24 mN/m
- DLS Peak 2 maxima ([4]; listed as 6): 5868 nm
- Polydispersity index (%) ([4]; listed as 6): 21.5 (± 1.3) %
- dH (DLS intensity distribution peak 1 maxima) ([4]; listed as 6): 164 nm
- Percentage inhibition of bacterial growth, PAO1 (P. aeruginosa) ([5]; listed as 6): 29.42% and 29%
- Percentage inhibition of bacterial growth, M6 (K. pneumoniae) ([6]; listed as 6): 22.92% and 23%
- Percentage inhibition of bacterial growth, NCTC 12923 (E. coli) ([7]; listed as 6): 32.77% and 33%
- Percentage inhibition of bacterial growth, ATCC 17978 (A. baumannii) ([8]; listed as 6): -28.50% and −29%
- Percentage inhibition of bacterial growth, ATCC 9144 (S. aureus) ([9]; listed as 6): 55.64% and 56%
- Percentage inhibition of bacterial growth, NCTC 775 (E. faecalis) ([10]; listed as 6): 7.71% and 8%
- Percentage inhibition of bacterial growth, NCTC 12204 (E. faecium) ([11]; listed as 6): 7.44% and 7%

SMILES: COc1ccc(NC(=O)N[C@@H](CCC(=O)O)C(=O)O)cc1 [SSA 5]
- (Q) 1H NMR spectroscopy, proportion NMR silent, acid or anion ([2]; 5.6 mM, D2O 5.0% EtOH, 298 K, listed as 5): 56%
- (Q) 1H NMR, proportion NMR silent, SSA acid or anion ([2]; ~112 mM, DMSO-d6 1.0% DCM): 0%
- ST at CAC ([3]; H2O 5.0% EtOH, 298 K): 58 mN m^−1
- CAC (footnote in place of a value) ([3]; H2O 5.0% EtOH, 298 K, listed as 5): ^b (CAC above the limit of solubility)
- Surface tension at CAC ([3]; listed as 5): 58.22 mN/m
- DLS Peak 2 maxima ([4]; listed as 5): 1328 nm
- Polydispersity index (%) ([4]; listed as 5): 22.7 (± 1.5) %
- dH (DLS intensity distribution peak 1 maxima) ([4]; listed as 5): 153 nm
- Percentage inhibition of bacterial growth, PAO1 (P. aeruginosa) ([5]; listed as 5): 0%
- inhibition at 5000 µM ([6]; Klebsiella pneumoniae, M6, 20 h, read-out: Percentage inhibition of bacterial growth, M6 (K. pneumoniae)): 12.8%
- Percentage inhibition of bacterial growth, M6 (K. pneumoniae) ([6]; listed as 5): 13%
- Percentage inhibition of bacterial growth, NCTC 12923 (E. coli) ([7]; listed as 5): 70.96% and 71%
- Percentage inhibition of bacterial growth, ATCC 17978 (A. baumannii) ([8]; listed as 5): 18.61% and 19%
- Percentage inhibition of bacterial growth, ATCC 9144 (S. aureus) ([9]; listed as 5): 12.67% and 13%
- inhibition at 5000 µM ([10]; Enterococcus faecalis, NCTC775, 20 h, read-out: Percentage inhibition of bacterial growth, NCTC 775 (E. faecalis)): 13%
- Percentage inhibition of bacterial growth, NCTC 775 (E. faecalis) ([10]; listed as 5): 13%
- inhibition at 5000 µM ([11]; Enterococcus faecium, NCTC12204, 20 h, read-out: Percentage inhibition of bacterial growth, NCTC 12204 (E. faecium)): 5.8%
- Percentage inhibition of bacterial growth, NCTC 12204 (E. faecium) ([11]; listed as 5): 6%
